# Measurements taken from patent US11286463B2, “Reprogramming of aged adult stem cells” (priority 2012, dated 2022).
# Tested on: 84 genes reported to be linked to cellular aging, epigenetics and senescence
# Assay: qPCR gene array of AASC in transwell culture with YASC
# Type: cell-based, human
# Conditions: 5 μM manumycin
# Procedure: In an embodiment, the methods of the present disclosure further comprise exposure of AASCs to the Intracellular Matrix (ICM) of the YASCs through placement of a transwell culture insert containing YASC into the tissue culture dish chamber. Mobilized PBMCs (1×10^7) from the second subjects are added to the outer well of 12-well transwell cultures containing a […] BD Falcon™ insert. Any membrane insert able to provide a cell-free filtrate to cultures of AASCs may be employed. In parallel, mobilized PBMCs (1×10^7) from the first subjects are added to the inner well of the 12-well plate. Cells may then be cultivated in a suitable media (e.g., RPMI-1640 (Gibco) supplemented with 10% fetal calf serum (FCS) and β-mercaptoethanol (β-ME)) for a time period of the type disclosed herein (e.g., 8-weeks), under standard culture conditions (e.g., 50% media changed every 4 days).
# For experiments investigating the contribution of exosomes as the membrane-permeable factors responsible for AASC reprogramming (i.e reprogramming agents), the exosomal inhibitor manumycin A (Sigma-Aldrich) can be added to the culture media at a final concentration of 5 μM at days 0 and 14 of the cultivation period.
# AASC reprogramming was carried out using the one-step process depicted in the middle workflow of FIGS. 1 and 2. […]
structure (smiles),measurement,value
"CCCC[C@@H](C)/C=C(C)/C=C(\C)C(=O)NC1=C[C@@](O)(/C=C/C=C/C=C/C(=O)NC2=C(O)CCC2=O)[C@@H]2O[C@@H]2C1=O [manumycin, -[(1S,5S,6R)-5-hydroxy-5-[(1E,3E,5E)-7-[(2-hydroxy-5-oxo-1-cyclopenten-1-yl)amino]-7-oxo-1,3,5-heptatrien-1-yl]-2-oxo-7-oxabicyclo[4.1.0]hept-3-en-3-yl]-2E,4E,6R-trimethyl,2,4-decadienamide]",gene expression levels of AASC co-cultured with YASC compared to absence of manumycin,displayed changes in gene expression levels
